Data: patent US20230149400A1, “METHODS AND COMPOSITIONSFOR TREATING VIRAL INFECTIONS” (ACLARIS THERAPEUTICS, INC., priority 2020, published 2023)
Read-outs that look alike come from different tables or passages of the source.

Assays:
[1] = tested on: lipopolysaccharide (TLR4)-stimulated cytokines and chemokines; assay: Ex vivo LPS (TLR4)-stimulated cytokine/chemokine production in whole blood of subjects given oral ATI-450; set-up: species or system human; details: for inhibition at 50 mg: Homo sapiens, po, both cohorts (100 mg once daily; 50 mg twice daily), compared to placebo
Experimental: Data were collected following stimulation by a lipopolysaccharide (LPS) at a single time point (5 hours) in each isolated ex vivo human whole blood sample collected. […]. Cytokines evaluated include: IL-1b, IL-1RA, IL-2, IL-7, IL-8, IL-9, IL-10, basic FGF, GCSF, GMCSF, IFNγ, IP-10, MCP-1, MIP-1α, MIP-1β, PDGF, TNFα, and VEGF.

[2] = test subjects
[3] = tested on: lung polymorphonuclear neutrophils (PMN); assay: Rat model of pulmonary inflammation (LPS aerosol), lung lavage PMN count; details: oral 1 mg/kg or 10 mg/kg, 4 hours after LPS exposure, versus vehicle
Experimental: One hour after administration, animals were placed in an aerosol chamber containing 60 μg/mL lipopolysaccharide (LPS) for 40 minutes and then removed to room air. Four hours after LPS exposure, lungs of the animals were lavaged with cold D-PBS/EDTA solution and the total number of polymorphonuclear neutrophils (PMN) in the solution were counted as an indicator of the inflammatory response.

[4] = Cohort 1 (SAD), 100 mg ATI-450 once daily
[5] = Cohort 2 (MAD), 50 mg ATI-450 twice daily

Structure (SMILES): Cc1cnc(-c2ccnc(C(C)(C)O)n2)cc1-n1c(C)cc(OCc2ncc(F)cc2F)c(Cl)c1=O (single isomer, unassigned) [ATI-450, 3-chloro-4-((3,5-difluoropyridin-2-yl)methoxy)-2′-(2-(2-hydroxypropan-2-yl)pyrimidin-4-yl)-5′,6-dimethyl-2H-[1,4′-bipyridin]-2-one]
- LPS-stimulated IL-6, IL-8, MIP-1β, G-CSF, IL-1RA, IP-10, and MCP-1 levels ([1]; 50 mg ATI-450 twice daily): reduction
- LPS-stimulated IL-6, IL-8, and MIP-1β release ([1]; 100 mg ATI-450 once daily): reduction
- GCSF Not Stimulated [1, 4]: 25.01 pg/mL
- GCSF Stimulated [1, 4]: 232.34 pg/mL
- GMCSF Not Stimulated [1, 4]: 0.46 pg/mL
- GMCSF Stimulated [1, 4]: 25.12 pg/mL
- IFNγ Not Stimulated [1, 4]: 12.54 pg/mL
- IFNγ Stimulated [1, 4]: 57.72 pg/mL
- IL-1RA Not Stimulated [1, 4]: 974.42 pg/mL
- IL-1RA Stimulated [1, 4]: 7169.95 pg/mL
- IL-1β Not Stimulated [1, 4]: 1.86 pg/mL
- IL-1β Stimulated [1, 4]: 776.88 pg/mL
- IL-2 Not Stimulated [1, 4]: 0.65 pg/mL
- IL-2 Stimulated [1, 4]: 30.06 pg/mL
- IL-6 Not Stimulated [1, 4]: 15.28 pg/mL
- IL-6 Stimulated [1, 4]: 8700.41 pg/mL
- IL-7 Not Stimulated [1, 4]: 8.79 pg/mL
- IL-7 Stimulated [1, 4]: 8.04 pg/mL
- IL-8 Not Stimulated [1, 4]: 1564.00 pg/mL
- IL-8 Stimulated [1, 4]: 24421.33 pg/mL
- IL-9 Not Stimulated [1, 4]: 0.00 pg/mL
- IL-9 Stimulated [1, 4]: 0.00 pg/mL
- IL-10 Not Stimulated [1, 4]: 22.57 pg/mL
- IL-10 Stimulated [1, 4]: 752.46 pg/mL
- IP-10 Not Stimulated [1, 4]: 288.07 pg/mL
- IP-10 Stimulated [1, 4]: 1487.58 pg/mL
- MCP-1 Not Stimulated [1, 4]: 1026.37 pg/mL
- MCP-1 Stimulated [1, 4]: 1215.21 pg/mL
- MIP-1α Not Stimulated [1, 4]: 105.22 pg/mL
- MIP-1α Stimulated [1, 4]: 32722.63 pg/mL
- MIP-1β Not Stimulated [1, 4]: 504.74 pg/mL
- MIP-1β Stimulated [1, 4]: 49549.56 pg/mL
- TNFα Not Stimulated [1, 4]: 8.57 pg/mL
- TNFα Stimulated [1, 4]: 5270.06 pg/mL
- VEGF Not Stimulated [1, 4]: 186.34 pg/mL
- VEGF Stimulated [1, 4]: 231.92 pg/mL
- bFGF Not Stimulated [1, 4]: 29.69 pg/mL
- bFGF Stimulated [1, 4]: 28.63 pg/mL
- inhibition of LPS-stimulated IL-1RA ([1]; Cohort 1 and Cohort 2): about 30%
- inhibition of LPS-stimulated IL-10 ([1]; Cohort 1 and Cohort 2): about 30%
- GCSF Not Stimulated [1, 5]: 16.33 pg/mL
- GCSF Stimulated [1, 5]: 292.44 pg/mL
- GMCSF Not Stimulated [1, 5]: 0.21 pg/mL
- GMCSF Stimulated [1, 5]: 19.15 pg/mL
- IFNγ Not Stimulated [1, 5]: 33.45 pg/mL
- IFNγ Stimulated [1, 5]: 57.81 pg/mL
- IL-1RA Not Stimulated [1, 5]: 893.81 pg/mL
- IL-1RA Stimulated [1, 5]: 13830.24 pg/mL
- IL-1β Not Stimulated [1, 5]: 2.25 pg/mL
- IL-1β Stimulated [1, 5]: 381.38 pg/mL
- IL-2 Not Stimulated [1, 5]: 2.86 pg/mL
- IL-2 Stimulated [1, 5]: 14.18 pg/mL
- IL-6 Not Stimulated [1, 5]: 5.70 pg/mL
- IL-6 Stimulated [1, 5]: 9359.59 pg/mL
- IL-7 Not Stimulated [1, 5]: 7.40 pg/mL
- IL-7 Stimulated [1, 5]: 6.87 pg/mL
- IL-8 Stimulated [1, 5]: 30259.47 pg/mL
- IL-9 Not Stimulated [1, 5]: 3.10 pg/mL
- IL-9 Stimulated [1, 5]: 2.77 pg/mL
- IL-10 Not Stimulated [1, 5]: 2.05 pg/mL
- IL-10 Stimulated [1, 5]: 108.90 pg/mL
- IP-10 Not Stimulated [1, 5]: 474.58 pg/mL
- IP-10 Stimulated [1, 5]: 1513.02 pg/mL
- MCP-1 Not Stimulated [1, 5]: 728.09 pg/mL
- MCP-1 Stimulated [1, 5]: 1124.80 pg/mL
- MIP-1α Not Stimulated [1, 5]: 193.51 pg/mL
- MIP-1α Stimulated [1, 5]: 38207.05 pg/mL
- MIP-1β Not Stimulated [1, 5]: 806.79 pg/mL
- MIP-1β Stimulated [1, 5]: 89906.73 pg/mL
- TNFα Not Stimulated [1, 5]: 13.44 pg/mL
- TNFα Stimulated [1, 5]: 6402.98 pg/mL
- VEGF Not Stimulated [1, 5]: 202.39 pg/mL
- VEGF Stimulated [1, 5]: 191.77 pg/mL
- bFGF Not Stimulated [1, 5]: 25.04 pg/mL
- bFGF Stimulated [1, 5]: 24.50 pg/mL
- inhibition at 50 mg ([1]; read-out: inhibition of LPS-stimulated GM-CSF): ≥ 70%
- inhibition at 50 mg ([1]; read-out: inhibition of LPS-stimulated IFNγ): ≥ 70%
- inhibition at 50 mg ([1]; read-out: inhibition of LPS-stimulated IL-2): ≥ 70%
- inhibition at 50 mg ([1]; read-out: inhibition of LPS-stimulated MIP-1α): ≥ 70%
- tolerability [2]: well tolerated
- total lung PMNs [3]: significantly reduced
